# Measurements: the supplement of paper PMC10307832
# Experiments:
# Assay in all cases: relative viability (nuclei count vs DMSO), 5 days (fraction); higher = more cells survive
# [1] = compound: CCN1C(=O)C2=CC(=C(N=C2N(C1=O)C3CC3)N)C(=O)N + CC(=O)Nc1cccc(-n2c(=O)n(C3CC3)c(=O)c3c(Nc4ccc(I)cc4F)n(C)c(=O)c(C)c32)c1 [Trametinib] (partner 0.02 µM)
# Procedure, shortened: (§1)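 Five library-drug doses in √10 steps were combined with a fixed anchor-drug dose, or a single drug was given alone, by pin tool to lung cancer cell lines in 1536-well plates the day after seeding. Nuclei were stained and counted after 5 days. Relative viability is the nuclei count in treated wells over that in vehicle wells, taken as the median of duplicate plates.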
# [2] = compound: CCN1C(=O)C2=CC(=C(N=C2N(C1=O)C3CC3)N)C(=O)N + CCNC(=O)c1noc(-c2cc(C(C)C)c(O)cc2O)c1-c1ccc(CN2CCOCC2)cc1 [Luminespib] (partner 0.01 µM)
# Procedure, shortened: as §1
# [3] = compound: CCN1C(=O)C2=CC(=C(N=C2N(C1=O)C3CC3)N)C(=O)N + COc1cccc2cc(-c3nc([C@H]4CC[C@H](C(=O)O)CC4)n4ncnc(N)c34)[nH]c12 [OSI-027] (partner 0.5 µM)
# Procedure, shortened: as §1
# [4] = compound: CCN1C(=O)C2=CC(=C(N=C2N(C1=O)C3CC3)N)C(=O)N + NC(=O)Nc1cc(-c2cccc(F)c2)sc1C(=O)N[C@H]1CCCNC1 [AZD7762] (partner 0.2 µM)
# Procedure, shortened: as §1
# [5] = compound: CCN1C(=O)C2=CC(=C(N=C2N(C1=O)C3CC3)N)C(=O)N + O=C(CCCCCCC(=O)Nc1ccccc1)NO [Vorinostat] (partner 1 µM)
# Procedure, shortened: as §1
cell line,measurement,setting,value
NCI-H2087,relative viability,[1]; first compound 0.253 µM,0.228
same,relative viability,[1]; first compound 0.8 µM,0.184
same,relative viability,[1]; first compound 2.53 µM,0.217
same,relative viability,[1]; first compound 8 µM,0.193
same,relative viability,[2]; first compound 0.253 µM,0.229
same,relative viability,[2]; first compound 0.8 µM,0.193
same,relative viability,[2]; first compound 2.53 µM,0.132
same,relative viability,[2]; first compound 8 µM,0.189
same,relative viability,[3]; first compound 0.253 µM,0.437
same,relative viability,[3]; first compound 0.8 µM,0.671
same,relative viability,[3]; first compound 2.53 µM,0.636
same,relative viability,[3]; first compound 8 µM,0.55
same,relative viability,[4]; first compound 0.253 µM,1.35
same,relative viability,[4]; first compound 0.8 µM,1.32
same,relative viability,[4]; first compound 2.53 µM,1.36
same,relative viability,[4]; first compound 8 µM,1.28
same,relative viability,[5]; first compound 0.253 µM,0.634
same,relative viability,[5]; first compound 0.8 µM,1.23
same,relative viability,[5]; first compound 2.53 µM,0.911
same,relative viability,[5]; first compound 8 µM,0.676
NCI-H2126,relative viability,[1]; first compound 0.253 µM,0.574
same,relative viability,[1]; first compound 0.8 µM,0.583
same,relative viability,[1]; first compound 2.53 µM,0.56
same,relative viability,[1]; first compound 8 µM,0.554
same,relative viability,[2]; first compound 0.253 µM,0.877
same,relative viability,[2]; first compound 0.8 µM,0.911
same,relative viability,[2]; first compound 2.53 µM,0.993
same,relative viability,[2]; first compound 8 µM,0.779
same,relative viability,[3]; first compound 0.253 µM,0.598
same,relative viability,[3]; first compound 0.8 µM,0.541
same,relative viability,[3]; first compound 2.53 µM,0.819
same,relative viability,[3]; first compound 8 µM,0.747
same,relative viability,[4]; first compound 0.253 µM,1.02
same,relative viability,[4]; first compound 0.8 µM,0.967
same,relative viability,[4]; first compound 2.53 µM,0.941
same,relative viability,[4]; first compound 8 µM,0.958
same,relative viability,[5]; first compound 0.253 µM,0.846
same,relative viability,[5]; first compound 0.8 µM,0.803
same,relative viability,[5]; first compound 2.53 µM,0.765
same,relative viability,[5]; first compound 8 µM,0.797
NCI-H2170,relative viability,[1]; first compound 0.253 µM,0.866
same,relative viability,[1]; first compound 0.8 µM,0.817
same,relative viability,[1]; first compound 2.53 µM,0.891
same,relative viability,[1]; first compound 8 µM,1.01
same,relative viability,[2]; first compound 0.253 µM,0.686
same,relative viability,[2]; first compound 0.8 µM,0.879
same,relative viability,[2]; first compound 2.53 µM,0.716
same,relative viability,[2]; first compound 8 µM,0.746
same,relative viability,[3]; first compound 0.253 µM,0.278
same,relative viability,[3]; first compound 0.8 µM,0.707
same,relative viability,[3]; first compound 2.53 µM,0.72
same,relative viability,[3]; first compound 8 µM,0.664
same,relative viability,[4]; first compound 0.253 µM,0.889
same,relative viability,[4]; first compound 0.8 µM,0.846
same,relative viability,[4]; first compound 2.53 µM,0.882
same,relative viability,[4]; first compound 8 µM,0.867
same,relative viability,[5]; first compound 0.253 µM,0.881
same,relative viability,[5]; first compound 0.8 µM,0.791
same,relative viability,[5]; first compound 2.53 µM,0.869
same,relative viability,[5]; first compound 8 µM,0.78
NCI-H2342,relative viability,[1]; first compound 0.253 µM,0.795
same,relative viability,[1]; first compound 0.8 µM,0.8
same,relative viability,[1]; first compound 2.53 µM,0.756
same,relative viability,[1]; first compound 8 µM,0.857
same,relative viability,[2]; first compound 0.253 µM,0.756
same,relative viability,[2]; first compound 0.8 µM,0.761
same,relative viability,[2]; first compound 2.53 µM,0.747
same,relative viability,[2]; first compound 8 µM,0.784
same,relative viability,[3]; first compound 0.253 µM,0.612
same,relative viability,[3]; first compound 0.8 µM,0.568
same,relative viability,[3]; first compound 2.53 µM,0.704
same,relative viability,[3]; first compound 8 µM,0.524
same,relative viability,[4]; first compound 0.253 µM,0.527
same,relative viability,[4]; first compound 0.8 µM,0.426
same,relative viability,[4]; first compound 2.53 µM,0.514
same,relative viability,[4]; first compound 8 µM,0.503
same,relative viability,[5]; first compound 0.253 µM,0.719
same,relative viability,[5]; first compound 0.8 µM,0.812
same,relative viability,[5]; first compound 2.53 µM,0.817
same,relative viability,[5]; first compound 8 µM,0.645
NCI-H2347,relative viability,[1]; first compound 0.253 µM,0.183
same,relative viability,[1]; first compound 0.8 µM,0.299
same,relative viability,[1]; first compound 2.53 µM,0.307
same,relative viability,[1]; first compound 8 µM,0.307
same,relative viability,[2]; first compound 0.253 µM,1.03
same,relative viability,[2]; first compound 0.8 µM,0.469
same,relative viability,[2]; first compound 2.53 µM,0.774
same,relative viability,[2]; first compound 8 µM,0.341
same,relative viability,[3]; first compound 0.253 µM,0.481
same,relative viability,[3]; first compound 0.8 µM,0.344
same,relative viability,[3]; first compound 2.53 µM,0.384
same,relative viability,[3]; first compound 8 µM,0.346
same,relative viability,[4]; first compound 0.253 µM,0.769
same,relative viability,[4]; first compound 0.8 µM,0.785
same,relative viability,[4]; first compound 2.53 µM,0.695
same,relative viability,[4]; first compound 8 µM,0.817
same,relative viability,[5]; first compound 0.253 µM,0.634
same,relative viability,[5]; first compound 0.8 µM,0.462
same,relative viability,[5]; first compound 2.53 µM,0.623
same,relative viability,[5]; first compound 8 µM,0.639
